The test system of assay [1] is mouse model of leukemia resembling the human acute promyelocytic leukemia. Briefly: In vivo activity, mouse leukemia model, splenomegaly as read out of blast infiltration. The conditions noted are these: orally, 30 mg/kg, 4 days, leukemic mice. The method, then:
The in vivo activity was conducted on a mouse model as characterized by Minucci et al. (Minucci S. et al. Blood 2002, 100, 2989-2995) The model is characterized by the development of leukemia, resembling the human acute promyelocytic leukemia, which is associated to a blast infiltration of several organs as bone marrow, liver and particularly of the spleen. In the conducted experiment, splenomegaly was studied as read out of blast infiltration and development of leukemia.
For the in vivo analysis, one million of leukemic cells (obtained from 129SvEv mice, Minucci S. et al. Blood 2002, 100, 2989-2995, obtained from Taconic, One Hudson City Centre Hudson, N.Y. (USA)) were injected intravenously into non-irradiated syngenic recipients. Treatment started once blast cells are detected in the recipients' peripheral blood (9 days after injection). The compounds were intravenously or orally administered at doses of 10 and 30 mg/kg for 4 days. […] after blast injection the mice were sacrificed and the spleens recovered. The weights of the spleen of the mice of the vehicle groups as well as of the treated groups were registered and used as evidence of effect on blast infiltration. […]
Compound A-36 administered orally at 30 mg/kg determined a reduction of the spleen weight of around 50% compared to mice treated with the vehicle (40% PEG-400, 60% aqueous solution containing 5% glucose) alone.

Another assay addresses T1, Human recombinant MAO B (Homo sapiens, UniProt P27338).
T1 sequence (P27338 1-520): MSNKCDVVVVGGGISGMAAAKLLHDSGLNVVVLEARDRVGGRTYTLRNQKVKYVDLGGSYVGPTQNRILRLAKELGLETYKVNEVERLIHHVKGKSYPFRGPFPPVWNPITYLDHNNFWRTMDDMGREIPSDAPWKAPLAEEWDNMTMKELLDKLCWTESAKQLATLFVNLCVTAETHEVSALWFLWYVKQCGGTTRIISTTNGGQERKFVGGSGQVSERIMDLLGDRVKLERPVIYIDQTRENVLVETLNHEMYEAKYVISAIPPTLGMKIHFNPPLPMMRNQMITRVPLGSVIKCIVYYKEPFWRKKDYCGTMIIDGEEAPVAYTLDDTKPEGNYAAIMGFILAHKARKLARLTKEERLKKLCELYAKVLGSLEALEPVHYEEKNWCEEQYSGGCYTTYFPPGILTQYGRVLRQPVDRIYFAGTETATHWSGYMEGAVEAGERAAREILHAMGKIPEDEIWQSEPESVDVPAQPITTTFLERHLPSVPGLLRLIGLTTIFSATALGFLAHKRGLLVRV
Conditions: ratio of IC50 against MAO-B over IC50 for LSD1.

The subject of assay [2] is Acute promyelocytic leukemia NB4 cells. Briefly: Cell growth (CellTiter-Fluor cell viability assay). Type of assay: cell-based. The conditions noted are these: Homo sapiens, NB-4, 48 h, range classes, read-out: IC50 [μM], cell growth inhibitory assay. In a few lines: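 Exponentially growing NB4 cells exposed to a range of inhibitor concentrations for 48 h. Viability then read as live-cell protease fluorescence (ex 360/em 535 nm) after ≥90 min reagent incubation at 37 °C; IC50 calculated from the data.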

In assay [3] the target is T2, human recombinant KDM1A (LSD1)/CoRest (Homo sapiens, UniProt O60341).
T2 construct: made in house; host or cells: E. coli
Briefly: Assay of enzyme inhibition of KDM1A (LSD1), Amplex UltraRed/peroxidase coupled. Type of assay: biochemical. Conditions: 15 min preincubation, 4.5 μM mono-methylated H3-K4 peptide, range classes, read-out: IC50 [μM], KDM1A inhibition assay. In a few lines: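 KDM1A/CoRest complex with inhibitor (e.g. 0–100 μM) and Amplex UltraRed/peroxidase preincubated 15 min at RT. Substrate: mono-methylated H3K4 21-mer peptide in 50 mM Tris pH 8, 0.05 mg/ml BSA, aerobic. IC50 from duplicates run twice, background-corrected.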

Consider 14 compounds from patent publication US9944589B2, “Cycloproplyamine derivatives useful as inhibitors of histone demethylases KDM1A” (Istituto Europeo de Oncologia S.r.L., priority 2012, dated 2018).

Counter-ions that a name gives are not always drawn.

A word on the IC50: it is the concentration needed to halve the response being measured.

Protocol for Human recombinant MAO B: The MAO-Glo Assay from Promega (cat. V1402, Promega, Madison, Wis.) was used to measure the effect of inhibitors on MAO-A and MAO-B activity.
After 30 minutes of incubation the reaction was stopped with the Promega detection reagent. The experiments were carried out in duplicate. IC50 was calculated using GraphPad Prism version 4.0 (GraphPad Software, San Diego, Calif.).

For the compound `CC[C@@]1(N)C[C@H]1c1ccc(NC(=O)c2ccc(-c3ccccc3)cc2)cc1` (relative stereo) [Example A-36, N-[4-[(trans)-2-amino-2-ethyl-cyclopropyl]phenyl]-4-phenyl-benzamide hydrochloride], the “reduction of the spleen weight compared to mice treated with the vehicle” value in assay [1] is “around 50%”. Also, at Human recombinant MAO B, the “IC50 (MAO-B)/IC50 (LSD1)” value came to 16. Moreover, the IC50 in assay [2] is no more than 10 µM.
With `CC[C@]1(N)C[C@@H]1c1ccc(NC(=O)c2ccccc2)cc1.Cl` (relative stereo) [Example A-47, N-[4-[trans-2-amino-2-ethyl-cyclopropyl]phenyl]benzamide hydrochloride], the IC50 in assay [3] was less than 0.1 µM. Moreover, the “IC50 (MAO-B)/IC50 (LSD1)” value on Human recombinant MAO B is listed as greater than 100.
For the compound `CC[C@@]1(N)C[C@H]1c1ccc(NC(=O)c2ccc(-c3ccoc3)cc2)cc1` (relative stereo) [Example A-78, N-[4-[trans-2-amino-2-ethyl-cyclopropyl]phenyl]-4-(3-furyl) benzamide hydrochloride], the IC50 in assay [3] was less than 0.1 µM; in assay [2], no more than 10 µM. Further, the “IC50 (MAO-B)/IC50 (LSD1)” value on Human recombinant MAO B worked out at 60.
As for `CC[C@@]1(N)C[C@H]1c1ccc(NC(=O)c2cccc(N3CCOC3=O)c2)cc1` (relative stereo) [Example A-98, N-[4-[trans-2-amino-2-ethyl-cyclopropyl]phenyl]-3-(2-oxooazolidin-3-yl)benzamide 2,2,2-trifluoroacetic acid], the IC50 in assay [3] was less than 0.1 µM; in assay [2], no more than 10 µM. In addition, on Human recombinant MAO B, the “IC50 (MAO-B)/IC50 (LSD1)” value is on record as greater than 100.
Consider `N[C@]1(CCc2ccccc2)C[C@H]1c1ccc(NC(=O)c2ccccc2)cc1` (relative stereo) [Example A-114, N-[4-trans-2-amino-2-phenethyl-cyclopropyl)phenyl] benzamide hydrochloride], for which the IC50 was less than 0.1 µM in assay [3] and no more than 10 µM in assay [2]. In addition, the “IC50 (MAO-B)/IC50 (LSD1)” value on Human recombinant MAO B is greater than 100.
Consider `CN1CCN(c2ccc(C(=O)Nc3ccc([C@@H]4C[C@]4(N)CCc4ccccc4)cc3)cc2)CC1` (relative stereo) [Example A-116, N-[4-(trans-2-amino-2-phenethyl-cyclopropyl)phenyl]-4-(4-methylpiperazin-1-yl)benzamide dihydrochloride], for which the IC50 in assay [3] is less than 0.1 µM; in assay [2], no more than 10 µM. Moreover, the “IC50 (MAO-B)/IC50 (LSD1)” value on Human recombinant MAO B was greater than 100.
`N[C@]1(Cc2ccc3ccccc3c2)C[C@H]1c1ccc(-n2cc(-c3ccccc3)nn2)cc1` (relative stereo) [Example A-124, trans-1-(2-naphthylmethyl)-2-[4-(4-phenyltriazol-1-yl)phenyl]cyclopropan amine hydrochloride]: the IC50 lay in the range of 0.1 to 1 µM in assay [3] and 10 to 50 µM in assay [2].
For `N[C@]1(CNCc2ccccc2)C[C@H]1c1ccccc1` (relative stereo) [Example B-3, trans-1-(benzylamino)methyl-2-phenyl-cyclopropanamine dihydrochloride], the results for the IC50 in assay [3] and in assay [2] were 1 to 5 µM and 50 to 100 µM, respectively.
For `CN1CCN(C(=O)CN[C@]2(Cc3ccc4ccccc4c3)C[C@H]2c2ccccc2)CC1` (relative stereo) [Example C-24, 1-(4-methylpiperazin-1-yl)-2-[[trans-1-(2-naphthylmethyl)-2-phenyl-cyclopropyl]amino]ethanone dihydrochloride], in that order: 0.1 to 1 µM and 10 to 50 µM.
`N[C@]1(c2ccc([N+](=O)[O-])cc2)C[C@H]1c1ccccc1` (relative stereo) [Example D-3, trans-1-(4-nitrophenyl)-2-phenyl-cyclopropanamine hydrochloride]: the IC50 is 0.1 to 1 µM in assay [3] and 10 to 50 µM in assay [2].
As for `N[C@]1(c2ccccc2)C[C@H]1c1ccc(Cl)cc1` (relative stereo) [Example D-4, trans-2-(4-chlorophenyl)-1-phenyl-cyclopropanamine hydrochloride], the IC50 lay in the range of 0.1 to 1 µM in assay [3] and 50 to 100 µM in assay [2].
With `N[C@]1(c2ccccc2)C[C@H]1c1ccc(Br)cc1` (relative stereo) [Example D-5, trans-2-(4-bromophenyl)-1-phenyl-cyclopropanamine hydrochloride], the IC50 in assay [3] is less than 0.1 µM; in assay [2], 10 to 50 µM.
`N[C@]1(Cc2ccc3ccccc3c2)C[C@H]1c1ccc(OCc2ccccc2)cc1` (stereo in doubt) [Example A-67, 2-(4-benzyloxyphenyl)-1-(2-naphthylmethyl) cyclopropanamine hydrochloride]: the IC50 in assay [3] was 0.1 to 1 µM; in assay [2] it was 10 to 50 µM.
Taken in the same sequence, the figures for `N[C@]1(Cc2ccc3ccccc3c2)C[C@H]1c1ccc(NC(=O)c2ccccc2)cc1` [Example A-44, N-[4-[tyrans-2-amino-2-(2-naphthylmethyl)cyclopropyl]phenyl] benzamide hydrochloride] were less than 0.1 µM and no more than 10 µM.
